According to article PMC6915728 (Nature Communications, 2019):
Like-named read-outs stand apart in the source and are kept apart here.

Columns and labels:
[1] = test system: E. coli K12 BW25113 carrying the pooled ASKA overexpression plasmid library (~4400 ORFs); assay: Chemical-genetic profiling: pooled competitive growth of the ASKA gene-overexpression library with and without AMP, deep sequencing readout; format: cell-based, Escherichia coli; conditions: whether the literature phenotype was captured by the overexpression screen
In short: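 Pooled ASKA plasmids in BW25113, IPTG-induced (100 µM) in MS medium with chloramphenicol, competed ~12 generations with or without AMP at a sub-inhibitory level doubling population doubling time. Plasmid pools exonuclease-cleaned and deep-sequenced for relative plasmid abundance; two replicates per AMP, five untreated; empty-vector strain controls genomic background.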

[2] = test system: AMP-evolved E. coli lines; assay: Cross-resistance / collateral sensitivity: relative MIC change of 38 laboratory-evolved AMP-resistant lines vs parental strain; format: cell-based, Escherichia coli; conditions: measured here
Text: Here, we extended this dataset by measuring susceptibility changes of the same evolved lines to four additional AMPs using identical protocols to represent AMPs from all four clusters (Supplementary Fig. 15a, see also Methods). Overall, the resulting dataset of susceptibility profiles provides a comprehensive map of cross-resistance and collateral sensitivity between AMPs representing various modes of action.
To characterize the cross-resistance of the 38 E. coli lineages we obtained relative MIC changes that are, the MIC values of the evolved lines compared to these of the parental strain, from two data sources. First, we used already measured relative MIC changes from Spohn et al. Supplementary data 4[20]. […] Second, we extended this dataset by measuring the relative MIC changes of the same evolved lines to four additional AMPs using identical protocol. […] In this way, AMPs from each cluster were represented in the dataset.
Supplementary Figure 15. […] Relative change in MIC was determined for each evolved line by comparing its MIC to the ancestral cell line (control). […] CAP18-adaped lines were not included in the analysis because CAP18 is known as a membrane-targeting AMP in the literature. c, Cross-resistance interactions are enriched between membrane-targeting AMPs that are in the same chemical-genetic clusters (i.e. AMP pairs within C1 and within C2 clusters) (Significant difference: ** P = 0.0082 from two-sided Fisher’s exact test, n = 61 and 62 for within cluster and between clusters, respectively). […] Source data are provided as a Source Data file.

[3] = test system: bacterial species in which the gene showed activity; conditions: cited from earlier work

TSSPPAAVVVRRRRRRRRRRRRRRRRRRR [PROA, Protamine, source herring, purchased from Sigma-Aldrich; cluster C3]
Overexpression phenotype, Chemical-genetic profile ([1]; gene nlpE): Confirmed | Overexpression phenotype, Chemical-genetic profile ([1]; gene ompT): Confirmed | Relative change in MIC (MIC of the AMP-adpated line / MIC of the ancestral strain) ([2]; AMP-adapted line BAC5_3): 1.1 | Relative change in MIC (MIC of the AMP-adpated line / MIC of the ancestral strain) ([2]; AMP-adapted line BAC5_5): 1.015 | Relative change in MIC (MIC of the AMP-adpated line / MIC of the ancestral strain) ([2]; AMP-adapted line BAC5_7): 1.44 | Relative change in MIC (MIC of the AMP-adpated line / MIC of the ancestral strain) ([2]; AMP-adapted line BAC5_10): 1.728 | Relative change in MIC (MIC of the AMP-adpated line / MIC of the ancestral strain) ([2]; AMP-adapted line CAP18_2): 1.2 | Relative change in MIC (MIC of the AMP-adpated line / MIC of the ancestral strain) ([2]; AMP-adapted line CAP18_5): 0.7622 | Relative change in MIC (MIC of the AMP-adpated line / MIC of the ancestral strain) ([2]; AMP-adapted line CAP18_6): 0.7622 | Relative change in MIC (MIC of the AMP-adpated line / MIC of the ancestral strain) ([2]; AMP-adapted line CAP18_8): 1.22 | Relative change in MIC (MIC of the AMP-adpated line / MIC of the ancestral strain) ([2]; AMP-adapted line CAP18_10): 1.44 | Relative change in MIC (MIC of the AMP-adpated line / MIC of the ancestral strain) ([2]; AMP-adapted line HBD3_3): 1.464 | Relative change in MIC (MIC of the AMP-adpated line / MIC of the ancestral strain) ([2]; AMP-adapted line HBD3_6): 0.7639 | Relative change in MIC (MIC of the AMP-adpated line / MIC of the ancestral strain) ([2]; AMP-adapted line HBD3_8): 1.22 | Relative change in MIC (MIC of the AMP-adpated line / MIC of the ancestral strain) ([2]; AMP-adapted line HBD3_10): 1.584 | Relative change in MIC (MIC of the AMP-adpated line / MIC of the ancestral strain) ([2]; AMP-adapted line LL37_1): 0.7044 | Relative change in MIC (MIC of the AMP-adpated line / MIC of the ancestral strain) ([2]; AMP-adapted line LL37_3): 0.7622 | Relative change in MIC (MIC of the AMP-adpated line / MIC of the ancestral strain) ([2]; AMP-adapted line LL37_6): 0.48 | Relative change in MIC (MIC of the AMP-adpated line / MIC of the ancestral strain) ([2]; AMP-adapted line LL37_7): 1 | Relative change in MIC (MIC of the AMP-adpated line / MIC of the ancestral strain) ([2]; AMP-adapted line LL37_10): 0.48 | Relative change in MIC (MIC of the AMP-adpated line / MIC of the ancestral strain) ([2]; AMP-adapted line PEX_1): 1.2 | Relative change in MIC (MIC of the AMP-adpated line / MIC of the ancestral strain) ([2]; AMP-adapted line PEX_4): 1.728 | Relative change in MIC (MIC of the AMP-adpated line / MIC of the ancestral strain) ([2]; AMP-adapted line PEX_5): 0.915 | Relative change in MIC (MIC of the AMP-adpated line / MIC of the ancestral strain) ([2]; AMP-adapted line PEX_6): 2.0736 | Relative change in MIC (MIC of the AMP-adpated line / MIC of the ancestral strain) ([2]; AMP-adapted line PEX_7): 0.8472 | Relative change in MIC (MIC of the AMP-adpated line / MIC of the ancestral strain) ([2]; AMP-adapted line PR39_1): 2.99 | Relative change in MIC (MIC of the AMP-adpated line / MIC of the ancestral strain) ([2]; AMP-adapted line PR39_2): 1.2 | Relative change in MIC (MIC of the AMP-adpated line / MIC of the ancestral strain) ([2]; AMP-adapted line PR39_5): 1.2 | Relative change in MIC (MIC of the AMP-adpated line / MIC of the ancestral strain) ([2]; AMP-adapted line PR39_7): 1.73 | Relative change in MIC (MIC of the AMP-adpated line / MIC of the ancestral strain) ([2]; AMP-adapted line PR39_10): 1.44 | Relative change in MIC (MIC of the AMP-adpated line / MIC of the ancestral strain) ([2]; AMP-adapted line PXB_2): 1.7568 | Relative change in MIC (MIC of the AMP-adpated line / MIC of the ancestral strain) ([2]; AMP-adapted line PXB_5): 0.8333 | Relative change in MIC (MIC of the AMP-adpated line / MIC of the ancestral strain) ([2]; AMP-adapted line PXB_6): 1 | Relative change in MIC (MIC of the AMP-adpated line / MIC of the ancestral strain) ([2]; AMP-adapted line PXB_8): 1 | Relative change in MIC (MIC of the AMP-adpated line / MIC of the ancestral strain) ([2]; AMP-adapted line PXB_10): 1.44 | Gene that modulates bacterial susceptibility to the AMP ([3]; Burkholderia cenocepacia, ref http://www.microbiologyresearch.org/docserver/fulltext/micro/155/9/2818.pdf?expires=1468919235&id=id&accname=guest&checksum=2CEA64BA8195145BE72C98BB20076627): zmpA | Gene that modulates bacterial susceptibility to the AMP ([3]; Burkholderia cenocepacia, ref http://www.microbiologyresearch.org/docserver/fulltext/micro/155/9/2818.pdf?expires=1468919235&id=id&accname=guest&checksum=2CEA64BA8195145BE72C98BB20076628): zmpB | Gene that modulates bacterial susceptibility to the AMP ([3]; Enterobacteriaceae, ref https://www.ncbi.nlm.nih.gov/pmc/articles/PMC3264287/, https://onlinelibrary.wiley.com/doi/full/10.1111/j.1348-0421.2010.00238.x, https://jb.asm.org/content/180/15/4002.full): ompT | Gene that modulates bacterial susceptibility to the AMP ([3]; Klebsiella pneumoniae, ref http://iai.asm.org/content/72/12/7107.full.pdf+html): cps | Gene that modulates bacterial susceptibility to the AMP ([3]; Proteus mirabilis, ref http://aac.asm.org/content/45/7/2030.long): sapD | Gene that modulates bacterial susceptibility to the AMP ([3]; Pseudomonas aeruginosa, Salmonella typhimurium, Escherichia coli, ref http://www.sciencemag.org/content/286/5444/1561.full.pdf, http://onlinelibrary.wiley.com/doi/10.1111/j.1365-2958.1995.tb02299.x/abstract, http://www.ncbi.nlm.nih.gov/pmc/articles/PMC50673/pdf/pnas01098-0300.pdf, https://jb.asm.org/content/jb/182/14/4077.full.pdf): phoP (PhoPQ) | Gene that modulates bacterial susceptibility to the AMP ([3]; Salmonella Typhimurium LT2, ref https://doi.org/10.1093/jac/dkq059): hemC (hem operon) | Gene that modulates bacterial susceptibility to the AMP ([3]; Salmonella enterica serovar Typhimurium, ref http://www.microbiologyresearch.org/docserver/fulltext/micro/154/2/666.pdf?expires=1487718158&id=id&accname=guest&checksum=D8B884D02A8B2A8619216A48E0826377): yejA | Gene that modulates bacterial susceptibility to the AMP ([3]; Salmonella enterica, Escherichia coli, ref http://www.ncbi.nlm.nih.gov/pmc/articles/PMC395316/pdf/emboj00065-0046.pdf http://www.ncbi.nlm.nih.gov/pmc/articles/PMC538956/pdf/1013-04.pd): sapA | Gene that modulates bacterial susceptibility to the AMP ([3]; Salmonella typhimurium, Escherichia coli, ref https://www.ncbi.nlm.nih.gov/pmc/articles/PMC3037666/, https://www.ncbi.nlm.nih.gov/pmc/articles/PMC3837802/pdf/zam7770.pdf): cpxA (CpxA/CpxR) | Gene that modulates bacterial susceptibility to the AMP ([3]; Salmonella typhimurium, Escherichia coli, ref https://www.ncbi.nlm.nih.gov/pmc/articles/PMC3037666/, https://www.ncbi.nlm.nih.gov/pmc/articles/PMC4808223/): amiA, amiC | Gene that modulates bacterial susceptibility to the AMP ([3]; Salmonella typhimurium, ref https://www.ncbi.nlm.nih.gov/pmc/articles/PMC3037666/): tatA | Gene that modulates bacterial susceptibility to the AMP ([3]; Staphylococcus aureus, SalmonellaTyphimurium, ref http://ac.els-cdn.com/S0022202X15369608/1-s2.0-S0022202X15369608-main.pdf?_tid=6fa51c80-693e-11e6-b18c-00000aacb362&acdnat=1471962936_8118358d97a056d7d78b5e8b4ca8d03b, https://www.sciencedirect.com/science/article/pii/S0928824401002917): hemB
